US20030212074A1, “Phosphate transport inhibitors” (priority 2000, published 2003)

The compounds below were run on Sodium-dependent phosphate transport (assay: Phosphate uptake assay in human proximal tubule cells (32P-labelled inorganic phosphate uptake)). Details: whole cell assay, 32P uptake.
Assay type: cell-based
Procedure: Sodium-dependent phosphate transport inhibition is determined by the ability of the test compound to inhibit the uptake of radio-labeled inorganic phosphate by proximal tubule cells. Appropriate cells from human, rabbit, or rat may be used.
Cell Preparation and Phosphate Uptake Assay.
Rabbit proximal tubule cells were isolated and cultured according to the procedure of Sakhrani, L. M. et al., Am. J. Physiol. 246:F757-F764, (1984) whose disclosure is incorporated herein by reference in its entirety. Human proximal tubule cells were purchased from Clonetics (San Diego, Calif.) and grown according to the suppliers' instructions. On the day of the experiment, cells were harvested from culture plates with 0.5 mM EDTA in phosphate buffered saline. The cells were washed twice in uptake buffer (see below) and equilibrated at 37 C in the same buffer for 30 minutes. Aliquots of cells (100 ul, 0.5 to 1 million cells) were distributed into glass test tubes. Fifty ul of drug solution or buffer were added followed by 50 ul of uptake buffer containing 100 uM [^32P]-K2HPO4 (0.5 to 1 uCi/tube).After varying periods of time (usually 4 minutes) at 37 C, uptakes were stopped with 4 ml of cold stop solution (see below) and the cells were washed 3 times in this solution by centrifugation. The pelleted cells were dissolved in 0.5 ml 1 N NaOH and ^32P was counted in a liquid scintillation counter. Phosphate uptake is expressed as pmol phosphate/mg cell protein.
In the above noted whole cell assay system for rabbit and human proximal tubule cells the cells are harvested by filtration and ^32P uptake is measured. It is also possible to use ^33P rather than ^32P.
`O=C(Nc1ccc(Br)cc1)c1cc(Br)ccc1NS(=O)(=O)c1ccccc1F` [5-bromo-N-(4-bromophenyl)-2-(2-fluorophenylsulfonamido)benzamide] gave an IC50 of 15 µM. Compound `O=C(Nc1ccc(Br)cc1)c1cc(Br)ccc1NS(=O)(=O)CCCCl` [5-bromo-N-(4-bromophenyl)-2-(3-chloropropylsulfonamido)benzamide] has an IC50 of 14 µM. `O=C(Nc1ccc(Br)cc1)c1cc(Br)ccc1NS(=O)(=O)c1ccc(Cl)s1` [5-bromo-N-(4-bromophenyl)-2-(5-chloro-2-thienylsulfonamido)benzamide] was tested, and the IC50 was 12 µM.
